In patent US12091402B2 (Avilar Therapeutics, Inc., priority 2021, dated 2024) one finds Kd data, which are given here for 21 compounds.

Read-outs that look alike come from different tables or passages of the source. Where a SMILES comes first, the peptide text is derived from it. Bridges are numbered along the chain shown (N, C = ends). [ ]: non-standard residue; d: D form. Pro(4S-NH2) = N[C@@H]1CN[C@H](C(=O)O)C1

In one test the target is IgG. In words: Affinity to IgG by surface plasmon resonance (SPR). It is filed as binding. The protocol:
Immobilization levels ranging from 1000-1300 resonance units (RU) are obtained. The running buffer is 10 mM HEPES, pH 7.4, 400 mM NaCl, 0.005% P20, […].
In general terms: In SPR one partner is held on a chip, and binding of the other changes the refractive index at the surface.

In another test the target is T1, ASGPR (Homo sapiens, UniProt P07306).
T1 sequence (P07306 1-291): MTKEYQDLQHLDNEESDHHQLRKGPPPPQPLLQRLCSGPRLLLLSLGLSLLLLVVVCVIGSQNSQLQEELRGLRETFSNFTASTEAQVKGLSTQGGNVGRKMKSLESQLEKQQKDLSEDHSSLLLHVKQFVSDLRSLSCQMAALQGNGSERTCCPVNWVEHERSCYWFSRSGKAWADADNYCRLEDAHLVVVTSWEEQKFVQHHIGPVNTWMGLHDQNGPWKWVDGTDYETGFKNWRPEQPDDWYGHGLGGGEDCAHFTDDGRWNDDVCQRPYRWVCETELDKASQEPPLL
In words: Affinity to ASGPR by surface plasmon resonance (SPR).

The mark [1] stands for this setting: Biacore 8K, 25° C., IgG on CM5 chip, read-out: IgG SPR Binding Kd.

Method for ASGPR: Biotinylated ASGPR (20 μg/ml) was immobilized on SA sensor chips (GE Healthcare) at flow rate of 5 μl/min for 90 sec reaching an immobilization level ranging from 500-3000 resonance units (RU). The running buffer was 50 mM HEPES, pH7.5, 150 mM NaCl, 50 mM CaCl2), 0.01% P20, 3% DMSO. The concentration of compounds vary from 2 mM to 5 nM depending on Kd values. The compounds are diluted 2 or 3-fold with 8 concentration points. Solutions containing serially diluted compounds are injected at a flow rate of 40 μL/min for 150-300 sec followed by a 90-300 sec dissociation phase for each concentration. The surface was regenerated using 50 mM HEPES, pH 7.5, 150 mM NaCl, 5 mM EDTA, 0.01% P20, 3% DMSO.
Data was processed using the analysis software in Biacore 8K to perform background subtraction, double referencing, and solvent correction. Values of affinity expressed as the dissociation constants (Kd) were determined by fitting the steady state binding responses (RUs) as a function of the concentration ([Compound]) using the following equation: RU=RUmax/(KD+[Compound]), where RU max is the calculated maximal response. Where appropriate double-referenced data were fit to using a 1:1 binding model for kinetic analysis.

As usually defined, the Kd is the equilibrium constant for the complex coming apart. Turning to `CNC(=O)CC[C@@H]1NC(=O)CNC(=O)[C@H](CC(C)C)NC(=O)[C@H](Cc2cnc[nH]2)NC(=O)[C@H](Cc2c[nH]c3ccccc23)NC(=O)[C@H](C)NC(=O)[C@@H]2CSSC[C@H](NC(=O)[C@H](Cc3c[nH]c4ccccc34)NC(=O)[C@H](C(C)C)NC(=O)[C@H](CC(C)C)NC1=O)C(=O)N[C@@H]([C@@H](C)O)C(=O)N1CCC[C@@H]1C(=O)N1C[C@@H](N)C[C@H]1C(=O)N[C@@H](CC(=O)O)C(=O)N2` [Intermediate 22], the Kd at IgG (setting [1]) is less than 100 nM; on IgG (SPR, read-out: IgG KD), less than 100 nM.

As to `CC(C)C[C@@H]1NC(=O)[C@H](C)NC(=O)CNC(=O)[C@H](CC(C)C)NC(=O)[C@H](Cc2cnc[nH]2)NC(=O)[C@H](Cc2c[nH]c3ccccc23)NC(=O)[C@H](C)NC(=O)[C@@H]2CSSC[C@H](NC(=O)[C@H](Cc3c[nH]c4ccccc34)NC(=O)[C@H](C(C)C)NC1=O)C(=O)N[C@@H]([C@@H](C)O)C(=O)N1CCC[C@@H]1C(=O)N1C[C@@H](N)C[C@H]1C(=O)N[C@@H](C)C(=O)N2` [Intermediate 25] (cyclo(ACAWHLGALVWCT[dP][Pro(4S-NH2)]); disulfide 2-12), the Kd at IgG (setting [1]) is less than 100 nM; on IgG (SPR, read-out: IgG KD), less than 100 nM.

With `CC(C)C[C@@H]1NC(=O)[C@H](Cc2cnc[nH]2)NC(=O)[C@H](Cc2c[nH]c3ccccc23)NC(=O)[C@H](C)NC(=O)[C@@H]2CSSC[C@H](NC(=O)[C@H](Cc3c[nH]c4ccccc34)NC(=O)[C@H](C(C)C)NC(=O)[C@H](CC(C)C)NC(=O)[C@H](CCC(N)=O)NC(=O)CNC1=O)C(=O)N[C@@H]([C@@H](C)O)C(=O)N1CCC[C@@H]1C(=O)N1C[C@@H](N)C[C@H]1C(=O)N[C@@H](CC(=O)O)C(=O)N2` [Intermediate 18] (cyclo(AWHLGQLVWCT[dP][Pro(4S-NH2)]DC); disulfide 10-15), the Kd on IgG (setting [1]) was less than 100 nM; at IgG (SPR, read-out: IgG KD), less than 100 nM.

As to `CC(C)C[C@@H]1NC(=O)[C@H](C)NC(=O)CNC(=O)[C@H](CC(C)C)NC(=O)[C@H](Cc2cnc[nH]2)NC(=O)[C@H](Cc2c[nH]c3ccccc23)NC(=O)[C@H](C)NC(=O)[C@@H]2CSSC[C@H](NC(=O)[C@H](Cc3c[nH]c4ccccc34)NC(=O)[C@H](C(C)C)NC1=O)C(=O)N[C@@H]([C@@H](C)O)C(=O)N1CCC[C@@H]1C(=O)N1C[C@@H](N)C[C@H]1C(=O)N[C@@H](CC(N)=O)C(=O)N2` [Intermediate 28] (cyclo(ALVWCT[dP][Pro(4S-NH2)]NCAWHLG); disulfide 5-10), the Kd on IgG (setting [1]) is less than 100 nM; at IgG (SPR, read-out: IgG KD), less than 100 nM.

As for `CC(C)C[C@@H]1NC(=O)[C@H](Cc2cnc[nH]2)NC(=O)[C@H](Cc2c[nH]c3ccccc23)NC(=O)[C@H](C)NC(=O)[C@@H]2CSSC[C@H](NC(=O)[C@H](Cc3c[nH]c4ccc(Cl)cc34)NC(=O)[C@H](C(C)C)NC(=O)[C@H](CC(C)C)NC(=O)[C@H](CCC(=O)O)NC(=O)CNC1=O)C(=O)N[C@@H]([C@@H](C)O)C(=O)N1CCC[C@@H]1C(=O)N1C[C@@H](N)C[C@H]1C(=O)N[C@@H](CC(=O)O)C(=O)N2` [Intermediate 29], the Kd at IgG (setting [1]) is less than 100 nM; at IgG (SPR, read-out: IgG KD), less than 100 nM.

Consider `CC(C)C[C@@H]1NC(=O)[C@H](Cc2cnc[nH]2)NC(=O)[C@H](Cc2c[nH]c3ccccc23)NC(=O)[C@H](C)NC(=O)[C@@H]2CSSC[C@H](NC(=O)[C@H](Cc3c[nH]c4ccccc34)NC(=O)[C@H](C(C)C)NC(=O)[C@H](CC(C)C)NC(=O)[C@H](CCC(=O)N(C)C)NC(=O)CNC1=O)C(=O)N[C@@H]([C@@H](C)O)C(=O)N1CCC[C@@H]1C(=O)N1C[C@@H](N)C[C@H]1C(=O)N[C@@H](CC(=O)O)C(=O)N2` [Intermediate 23], for which the Kd on IgG (setting [1]) was less than 100 nM; at IgG (SPR, read-out: IgG KD) it was less than 100 nM.

In the case of `CC(C)C[C@@H]1NC(=O)[C@H](Cc2cnc[nH]2)NC(=O)[C@H](Cc2c[nH]c3ccccc23)NC(=O)[C@H](C)NC(=O)[C@@H]2CSSC[C@H](NC(=O)[C@H](Cc3c[nH]c4ccccc34)NC(=O)[C@H](C(C)C)NC(=O)[C@H](CC(C)C)NC(=O)[C@H](CCC(=O)N(C)C)NC(=O)CNC1=O)C(=O)N[C@@H]([C@@H](C)O)C(=O)N1CCC[C@@H]1C(=O)N1C[C@@H](N)C[C@H]1C(=O)N[C@@H](CC(N)=O)C(=O)N2` [Intermediate 27] (cyclo(AWHLGE(NMe2)LVWCT[dP][Pro(4S-NH2)]NC); disulfide 10-15), the Kd is less than 100 nM on IgG (setting [1]) and less than 100 nM on IgG (SPR, read-out: IgG KD).

In the case of `C#CCCCC(=O)NCCOCCOCCC(=O)N[C@H]1C[C@H]2C(=O)N[C@@H](CC(=O)O)C(=O)N[C@H]3CSSC[C@H](NC(=O)[C@H](Cc4c[nH]c5ccccc45)NC(=O)[C@H](C(C)C)NC(=O)[C@H](CC(C)C)NC(=O)[C@H](CCC(=O)O)NC(=O)CNC(=O)[C@H](CC(C)C)NC(=O)[C@H](Cc4cnc[nH]4)NC(=O)[C@H](Cc4c[nH]c5ccccc45)NC(=O)[C@H](C)NC3=O)C(=O)N[C@@H]([C@@H](C)O)C(=O)N3CCC[C@@H]3C(=O)N2C1` [Intermediate 6], the Kd at IgG (setting [1]) is less than 100 nM.

As to `CC(C)C[C@@H]1NC(=O)[C@H](Cc2cnc[nH]2)NC(=O)[C@H](Cc2c[nH]c3ccccc23)NC(=O)[C@H](C)NC(=O)[C@@H]2CSSC[C@H](NC(=O)[C@H](Cc3c[nH]c4ccccc34)NC(=O)[C@H](C(C)C)NC(=O)[C@H](CC(C)C)NC(=O)[C@H](CCC(=O)O)NC(=O)CNC1=O)C(=O)N[C@@H]([C@@H](C)O)C(=O)N1CCC[C@@H]1C(=O)N1C[C@H](N)C[C@H]1C(=O)N[C@@H](CC(=O)O)C(=O)N2` [Intermediate 30], at IgG (SPR, read-out: IgG KD), the dissociation constant Kd was less than 100 nM.

With `C#CCCCC(=O)NCCOCCOCCOCCOCCNC(=O)CC[C@@H]1NC(=O)CNC(=O)[C@H](CC(C)C)NC(=O)[C@H](Cc2cnc[nH]2)NC(=O)[C@H](Cc2c[nH]c3ccccc23)NC(=O)[C@H](C)NC(=O)[C@@H](NC(=O)[C@@H](N)CC(=O)O)CSSC[C@@H](C(=O)N[C@H](C(N)=O)[C@@H](C)O)NC(=O)[C@H](Cc2c[nH]c3ccccc23)NC(=O)[C@H](C(C)C)NC(=O)[C@H](CC(C)C)NC1=O` [Intermediate 2], the Kd on IgG (setting [1]) was less than 100 nM.

`COc1cccc(N(C)C[C@H]2OC[C@H](Nc3cncc(C(F)(F)F)n3)[C@@H](O)[C@H]2O)c1` [A106, (2R,3R,4R,5S)-2-(((3-methoxyphenyl)(methyl)amino)methyl)-5-((6-(trifluoromethyl)pyrazin-2-yl)amino)tetrahydro-2H-pyran-3,4-diol] gave a Kd on ASGPR of less than 1000 nM.

As for `C=CCO[C@H]1O[C@H](Cn2cc(CO)nn2)[C@H](O)[C@H](O)[C@H]1Nc1nccc(C(F)(F)F)n1` [A64, (2R,3R,4R,5R,6S)-6-(allyloxy)-2-((4-(hydroxymethyl)-1H-1,2,3-triazol-1-yl)methyl)-5-((4-(trifluoromethyl)pyrimidin-2-yl)amino)tetrahydro-2H-pyran-3,4-diol], the Kd on ASGPR lay within 1000 to 10000 nM.

Regarding `N#Cc1nc(N[C@H]2CO[C@H](CO)[C@H](O)[C@@H]2O)cc(C(F)(F)F)n1` [A79, 4-(((3S,4R,5R,6R)-4,5-dihydroxy-6-(hydroxymethyl)tetrahydro-2H-pyran-3-yl)amino)-6-(trifluoromethyl)pyrimidine-2-carbonitrile], on ASGPR, the Kd was more than 20000 nM.

With `O[C@@H]1[C@H](O)[C@@H](Nc2nccc(C(F)(F)F)n2)CO[C@@H]1Cn1ccnn1` [A67, (2R,3R,4R,5S)-2-((1H-1,2,3-triazol-1-yl)methyl)-5-((4-(trifluoromethyl)pyrimidin-2-yl)amino)tetrahydro-2H-pyran-3,4-diol], at ASGPR, the Kd was less than 1000 nM.

With `OC[C@H]1OC[C@H](Nc2ncnn3cccc23)[C@@H](O)[C@H]1O` [A49, (2R,3R,4R,5S)-2-(hydroxymethyl)-5-(pyrrolo[2,1-f][1,2,4]triazin-4-ylamino)tetrahydro-2H-pyran-3,4-diol], on ASGPR, the Kd is 1000 to 10000 nM.

`O[C@@H]1[C@H](O)[C@@H](Nc2cncc(C(F)(F)F)n2)CO[C@@H]1CNc1cnccn1` [A122] had a Kd at ASGPR of less than 1000 nM.

`C=CCO[C@H]1O[C@H](Cn2ccnn2)[C@H](O)[C@H](O)[C@H]1NC(=O)C(F)(F)F` [A70, N-((2S,3R,4R,5R,6R)-6-((1H-1,2,3-triazol-1-yl)methyl)-2-(allyloxy)-4,5-dihydroxytetrahydro-2H-pyran-3-yl)-2,2,2-trifluoroacetamide] came in with a Kd on ASGPR of less than 1000 nM.

The compound `O=C(O)CC(=O)NC[C@H]1OC[C@H](Nc2cncc(C(F)(F)F)n2)[C@@H](O)[C@H]1O` [A32, 3-((((2R,3R,4R,5S)-3,4-dihydroxy-5-((6-(trifluoromethyl)pyrazin-2-yl)amino)tetrahydro-2H-pyran-2-yl)methyl)amino)-3-oxopropanoic acid] yielded a Kd at ASGPR of less than 1000 nM.

The compound `C=CCO[C@H]1O[C@H](CN=[N+]=[N-])[C@H](O)[C@H](O)[C@H]1Nc1nccc(C(F)(F)F)n1` [A72, (2R,3R,4R,5R,6S)-6-(allyloxy)-2-(azidomethyl)-5-((4-(trifluoromethyl)pyrimidin-2-yl)amino)tetrahydro-2H-pyran-3,4-diol] registered a Kd on ASGPR of less than 1000 nM.

As for `[N-]=[N+]=NC[C@@]12CO[C@@H](O1)[C@H](Nc1nc(Cl)ns1)[C@@H](O)[C@H]2O` [A74, (1S,2R,3R,4R,5S)-1-(azidomethyl)-4-((3-chloro-1,2,4-thiadiazol-5-yl)amino)-6,8-dioxabicyclo[3.2.1]octane-2,3-diol], the dissociation constant Kd at ASGPR is less than 1000 nM.

On to `C=CCO[C@H]1O[C@H](CO)[C@H](O)[C@H](O)[C@H]1N` [A52, (2R,3R,4R,5R,6S)-6-(allyloxy)-5-amino-2-(hydroxymethyl)tetrahydro-2H-pyran-3,4-diol], for which, at ASGPR, the dissociation constant Kd was more than 20000 nM.
